Measured values from BindingDB's records for doi:10.1016/s0960-894x(02)00382-7 (Novartis Pharma, 2002).
pIC50: −log10 of the molar value.

biological target: Substance-P receptor (Bos taurus); test: inhibition of [3H]Sar-SP binding to Tachykinin receptor 1 of bovine retina membranes

Row | pIC50 | SMILES
1 | 8.57 | CN(C(=O)c1cc(C(F)(F)F)cc(C(F)(F)F)c1)c1cc(C(=O)N[C@@H]2CCCCNC2=O)ccc1-c1ccc(Cl)cc1
2 | 7.89 | COc1cc(C(=O)N(C)c2cc(C(=O)N[C@@H]3CCCCNC3=O)ccc2-c2ccc(Cl)cc2)cc(OC)c1OC
3 | 9.00 | CN(C(=O)c1cc(C(F)(F)F)cc(C(F)(F)F)c1)c1cc(C(=O)N[C@@H]2CCCCNC2=O)ccc1-c1ccc(F)cc1
4 | 8.22 | Cc1ccc(-c2ccc(C(=O)N[C@@H]3CCCCNC3=O)cc2N(C)C(=O)c2cc(C(F)(F)F)cc(C(F)(F)F)c2)cc1
5 | 9.10 | CN(C(=O)c1cc(C(F)(F)F)cc(C(F)(F)F)c1)c1cc(C(=O)N[C@@H]2CCCCNC2=O)ccc1-c1ccc(Cl)c(Cl)c1
6 | 9.00 | CN(C)CCCNC(=O)c1ccc(-c2ccc(Cl)cc2)c(N(C)C(=O)c2cc(C(F)(F)F)cc(C(F)(F)F)c2)c1 [2-[(3,5-Bis-trifluoromethyl-benzoyl)-methyl-amino]-4'-chloro-biphenyl-4-carboxylic acid (3-dimethylamino-propyl)-amide]
7 | 8.40 | CN(C)C(=O)c1ccc(-c2ccc(Cl)cc2)c(N(C)C(=O)c2cc(C(F)(F)F)cc(C(F)(F)F)c2)c1 [2-[(3,5-Bis-trifluoromethyl-benzoyl)-methyl-amino]-4'-chloro-biphenyl-4-carboxylic acid dimethylamide]
8 | 7.47 | CN(C(=O)c1cc(C(F)(F)F)cc(C(F)(F)F)c1)c1cc(C(=O)NC2CCCCC2)ccc1-c1ccc(F)cc1 [2-[(3,5-Bis-trifluoromethyl-benzoyl)-methyl-amino]-4'-fluoro-biphenyl-4-carboxylic acid cyclohexylamide]
9 | 9.15 | COc1cc(C(=O)Nc2cc(C(=O)NC3CCCCNC3=O)ccc2-c2ccc(Cl)cc2)cc(OC)c1OC (centres undefined) [4'-Chloro-2-(3,4,5-trimethoxy-benzoylamino)-biphenyl-4-carboxylic acid (2-oxo-azepan-3-yl)-amide]
